Source: US20210040073A1, “AZABICYCLO-SUBSTITUTED TRIAZOLE DERIVATIVE, PREPARATION METHOD THEREOF, AND APPLICATION OF SAME IN MEDICINE” (Jiangsu Hengrui Medicine Co., Ltd., priority 2016, published 2021)

Key:
human V1aR = biological target: T1, human V1aR (Homo sapiens, UniProt P37288); assay: Inhibition activity on human V1aR (Fluo-4 calcium assay, HEK293/human V1aR stably transfected cells, vasopressin 3 nM); type: cell-based; conditions: calcium signal
T1 construct: expressed in transfected cells
Experimental: The inhibition effect of the compounds of the present invention on the activity of human V1aR protein expressed in HEK293/human V1aR stably transfected cells was determined by the following experimental method:
The pcDNA3.1-V1aR plasmid was transferred into HEK293 cells with the Lipofectamine® 3000 transfection reagent; G418 was added on the next day to screen, and monoclonal cell lines were selected.
(§1) HEK293/human V1aR stably transfected cells were inoculated in a 96-well plate with an inoculation density of 25,000 cells/well one day in advance. On the next day, a loading buffer containing Fluo-4 dye was formulated using the reagents in the Fluo-4 NW calcium assay kit, and the culture medium was then removed; 100 μl of the loading buffer containing Fluo-4 dye were added to each well, and the plate was incubated at 37° C. for 30 minutes. After that, the plate was moved to room temperature and equilibrated for 10 minutes. The compounds were formulated into concentration gradients of 10^6, 10^5, 10^4, 10^3, 10^2 and 10^1 nM. 1 μl of the compounds in each concentration was added to each well, and the plate was incubated at room temperature for 10 minutes. […] IC50 values of the compounds were calculated by Graphpad prism software using fluorescence signals corresponding to different concentrations.
The inhibition activity of the compounds of the present invention on human V1aR was determined by the above test, and the obtained IC50 values are shown in Table 2.

human V1bR = biological target: T2, human V1bR (Homo sapiens, UniProt P47901); assay: Inhibition activity on human V1bR (Fluo-4 calcium assay, HEK293/human V1bR pool cells, vasopressin 3 nM); type: cell-based; conditions: calcium signal
T2 construct: expressed in transfected cells; host or cells: HEK293 (G418-selected pool)
T2 sequence (P47901 1-424): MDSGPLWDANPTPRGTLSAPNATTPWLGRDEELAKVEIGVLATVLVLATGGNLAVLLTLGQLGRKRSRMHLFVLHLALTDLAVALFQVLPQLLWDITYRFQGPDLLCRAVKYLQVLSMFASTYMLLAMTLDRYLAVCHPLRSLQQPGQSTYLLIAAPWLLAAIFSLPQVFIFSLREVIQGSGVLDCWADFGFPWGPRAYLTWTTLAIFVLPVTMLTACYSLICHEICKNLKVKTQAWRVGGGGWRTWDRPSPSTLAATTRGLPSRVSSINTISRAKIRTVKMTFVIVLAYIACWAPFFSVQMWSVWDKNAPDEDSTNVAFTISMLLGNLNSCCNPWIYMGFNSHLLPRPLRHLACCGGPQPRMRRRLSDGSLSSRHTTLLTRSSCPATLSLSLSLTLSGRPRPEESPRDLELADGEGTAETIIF
Experimental: The inhibition effect of the compounds of the present invention on the activity of human V1bR protein expressed in HEK293/human V1bR cells was determined by the following experimental method:
The pcDNA3.1-V1bR plasmid was transferred into HEK293 cells with the Lipofectamine® 3000 transfection reagent; G418 was added on the next day, and the HEK293/human V1bR pool cell lines were obtained.
as §1, with “V1bR pool” for “V1aR stably transfected”

human V2R = biological target: T3, human V2R (Homo sapiens, UniProt P30518); assay: Inhibition activity on human V2R (cAMP HTRF assay, HEK293/human V2R pool cells, vasopressin); type: cell-based
T3 construct: expressed in transfected cells; host or cells: HEK293 (G418-selected pool)
Experimental: The inhibition effect of the compounds of the present invention on the activity of human V2R protein expressed in HEK293/human V2R cells was determined by the following experimental method:
The pcDNA3.1-V2R plasmid was transferred into HEK293 cells with the Lipofectamine® 3000 transfection reagent; G418 was added on the next day, and the HEK293/human V2R pool cell lines were obtained.
HEK293/human V2R pool cells were digested with the cell dissociation solution (enzyme-free), thereby dissociating the cells from the cell culture dish into individual cells. After completion, the cell solution was blown well, and centrifuged to remove the supernatant. The cells were re-suspended in the test buffer 1 (1×HBSS+20 mM HEPES+0.1% BSA) and counted. The cell density was adjusted to 1250 cells/5 μl, i.e., 2.5*10^5/ml.
The compounds were formulated into a series of concentrations of 20 mM, 6.67 mM, 2.22 mM, 0.74 mM, 0.25 mM, 0.08 mM, 27.4 μM, 9.14 μM, 3.05 μM, 1.02 μM, 0.34 μM and 0 μM (DMSO) with pure DMSO. The compounds were then formulated into a 4-fold use concentration with the test buffer 2 (test buffer 1+1 mM IBMX).
Agonist: 460 μM vasopressin was used as the mother liquor, formulated as a 2 μM solution with DMSO, which was then diluted to a 0.5 nM solution with the test buffer 2.
Standard: The first point was 20 μl of a stock solution (2848 nM), which was diluted successively to a total of eleven concentrations in a 4-fold concentration gradient with the test buffer 1 from the second point.
1. The well-mixed cells were added to a 384-well plate (5 μl/well) without changing the tip.
2. The test compounds and positive compound formulated were added (2.5 μl/well), and the tips were changed.
3. The plate was centrifuged at 1000 rpm for 1 min, shaken for 30 sec to mix well, and incubated at room temperature for 30 min.
4. The standard curve wells were added with the test buffer 2 (5 μl/well).
5. The agonist formulated was added (2.5 μl/well), and the tips were changed; the plate was centrifuged at 1000 rpm for 1 min, shaken for 30 sec to mix well, and incubated at room temperature for 30 min.
6. cAMP-d2 (a component in the cAMP dynamic 2 kit) and Anti-cAMP-Eu-Cryptate (a component in the cAMP dynamic 2 kit) were formulated in the dark, which were then mixed well with cAMP lysate (a component in the cAMP dynamic 2 kit) in a ratio of 1:4. Each well was added with the formulated cAMP-d2 solution (5 μl/well), followed by addition of Anti-cAMP-Eu-Cryptate (5 μl/well). The plate was shaken for 30 sec to mix well, and incubated in the dark at room temperature for 1 h.
4) Plate reading: The HTRF signals were read by the PheraStar multi-function microplate reader.
The data in this test was processed using the data processing software Graphpad Prism.
The inhibition activity of the compounds of the present invention on human V2R was determined by the above test, and the obtained IC50 values are shown in Table 4.

human OTR = biological target: T4, human OTR (Homo sapiens, UniProt P30559); assay: Inhibition activity on human OTR (Fluo-4 calcium assay, HEK293/human OTR stably transfected cells, oxytocin 3 nM); type: cell-based; conditions: calcium signal
T4 construct: expressed in transfected cells
T4 sequence (P30559 1-389): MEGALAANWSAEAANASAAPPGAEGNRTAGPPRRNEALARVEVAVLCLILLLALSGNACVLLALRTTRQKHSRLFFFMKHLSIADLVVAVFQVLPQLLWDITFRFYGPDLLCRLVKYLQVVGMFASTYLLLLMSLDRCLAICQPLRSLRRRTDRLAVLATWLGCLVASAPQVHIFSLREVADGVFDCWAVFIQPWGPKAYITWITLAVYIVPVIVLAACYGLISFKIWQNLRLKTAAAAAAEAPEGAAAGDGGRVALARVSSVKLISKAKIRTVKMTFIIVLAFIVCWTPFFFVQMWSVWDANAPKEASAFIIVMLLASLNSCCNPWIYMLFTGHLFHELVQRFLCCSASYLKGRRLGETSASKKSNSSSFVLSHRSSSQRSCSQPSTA
Experimental: The inhibition effect of the compounds of the present invention on the activity of human OTR protein expressed in HEK293/human OTR stably transfected cells was determined by the following experimental method:
The pcDNA3.1-hOTR plasmid was transferred into HEK293 cells with the Lipofectamine® 3000 transfection reagent; G418 was added on the next day to screen, and monoclonal cell lines were selected.
HEK293/human OTR stably transfected cells were inoculated in a 96-well plate with an inoculation density of 25,000 cells/well one day in advance. On the next day, a loading buffer containing Fluo-4 dye was formulated using the reagents in the Fluo-4 NW calcium assay kit, and the culture medium was then removed; 100 μl of the loading buffer containing Fluo-4 dye were added to each well, and the plate was incubated at 37° C. for 30 minutes. After that, the plate was moved to room temperature and equilibrated for 10 minutes. The compounds were formulated into concentration gradients of 10^6, 10^5, 10^4, 10^3, 10^2 and 10^1 nM. 1 μl of the compounds in each concentration was added to each well, and the plate was incubated at room temperature for 10 minutes. 50 μl of oxytocin polypeptide (3 nM) were automatically added by the machine, and the values were immediately detected at 494/516 nM by the flexstation 3 microplate reader. IC50 values of the compounds were calculated by Graphpad prism software using fluorescence signals corresponding to different concentrations.
The inhibition activity of the compounds of the present invention on human OTR was determined by the above test, and the obtained IC50 values are shown in Table 1.

[1] = Pharmacokinetics assay in rats after intragastrical administration; conditions: both, Sprague-Dawley, rat, plasma, po, 2 mg/kg
Experimental: Rats were used as test animals. […] The pharmacokinetic behavior of the compounds of the present invention was studied and evaluated in rats.
After an overnight fast, SD rats were administered intragastrically the test compounds at an administration dosage of 2.0 mg/kg and an administration volume of 10.0 mL/kg.
0.2 mL of blood was taken from the orbital sinus before administration and at 0.5, 1.0, 2.0, 4.0, 6.0, 8.0, 11.0 and 24.0 hours after administration. The samples were stored in heparinized tubes, and centrifuged for 10 minutes at 4° C. at 3,500 rpm to separate the blood plasma. The plasma samples were stored at −20° C. The rats were fed 2 hours after administration.
The content of the test compounds in the plasma of rats after intragastrical administration of the test compounds at different concentrations was determined: 25 μL of rat plasma at each time after administration was taken, added with 50 μL of the internal standard solution of camptothecin (100 ng/mL) and 200 μL of acetonitrile, vortex-mixed for 5 minutes, and centrifuged for 10 minutes (4000 rpm). 1.0 μL of the supernatant was taken from the plasma samples for LC/MS/MS analysis.

T3 sequence (P30518 whole entry): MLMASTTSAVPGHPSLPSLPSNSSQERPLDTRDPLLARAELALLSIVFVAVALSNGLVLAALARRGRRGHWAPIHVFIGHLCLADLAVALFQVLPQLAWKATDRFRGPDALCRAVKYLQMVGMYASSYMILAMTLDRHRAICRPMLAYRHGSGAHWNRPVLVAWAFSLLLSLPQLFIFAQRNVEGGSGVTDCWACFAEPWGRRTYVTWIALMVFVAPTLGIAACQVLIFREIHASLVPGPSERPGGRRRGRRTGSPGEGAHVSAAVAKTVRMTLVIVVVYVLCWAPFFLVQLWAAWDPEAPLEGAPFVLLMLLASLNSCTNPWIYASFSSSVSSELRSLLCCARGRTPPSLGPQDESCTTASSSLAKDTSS
T1 sequence (P37288 whole entry): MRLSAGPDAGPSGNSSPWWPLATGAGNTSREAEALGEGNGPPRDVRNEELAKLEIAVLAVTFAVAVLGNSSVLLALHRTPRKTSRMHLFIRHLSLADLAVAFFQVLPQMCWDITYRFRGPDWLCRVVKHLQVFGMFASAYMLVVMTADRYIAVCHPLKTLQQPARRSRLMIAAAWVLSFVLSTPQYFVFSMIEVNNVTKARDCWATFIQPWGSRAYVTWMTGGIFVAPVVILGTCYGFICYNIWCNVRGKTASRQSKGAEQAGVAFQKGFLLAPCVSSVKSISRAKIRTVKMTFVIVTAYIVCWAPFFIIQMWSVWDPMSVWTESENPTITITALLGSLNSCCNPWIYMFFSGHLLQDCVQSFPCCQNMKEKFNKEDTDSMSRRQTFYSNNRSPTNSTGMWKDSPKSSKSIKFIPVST

| Structure (SMILES) | IC50 (human V1aR) [µM] | IC50 (human V1bR) [µM] | IC50 (human V2R) [µM] | IC50 (human OTR) [µM] | AUC [1] [ng·h/mL] | CL/F [1] [mL/min/kg] | Cmax [1] [ng/mL] | MRT [1] [h] | Vd/F [1] [L/kg] | half-life [1] [h] |
| --- | --- | --- | --- | --- | --- | --- | --- | --- | --- | --- |
| COc1ccc(-n2c(COC3CCOCC3)nnc2N2C[C@@H]3C[C@]3(c3ccc(F)cc3Cl)C2)cn1 [Example 2, (1S,5R)-1-(2-Chloro-4-fluorophenyl)-3-(4-(6-methoxypyridin-3-yl)-5-(((tetrahydro-2H-pyran-4-yl)oxy)methyl)-4H-1,2,4-triazol-3-yl)-3-azabicyclo[3.1.0]hexane] | 4.7 | – | – | – | – | – | – | – | – | – |
| COc1ccc(-n2c(CO[C@H]3CCOC3)nnc2N2C[C@@H]3C[C@]3(c3ccc(F)cc3Cl)C2)cn1 [Example 3, (1S,5R)-1-(2-Chloro-4-fluorophenyl)-3-(4-(6-methoxypyridin-3-yl)-5-((((S)-tetrahydrofuran-3-yl)oxy)methyl)-4H-1,2,4-triazol-3-yl)-3-azabicyclo[3.1.0]hexane] | 7.5 | 56.7 | 23 | – | – | – | – | – | – | – |
| COCc1nnc(N2C[C@@H]3C[C@]3(c3ccc(F)cc3Cl)C2)n1-c1ccc2c(c1)OCO2 [Example 5, (1S,5R)-3-(4-(Benzo[d][1,3]dioxol-5-yl)-5-(methoxymethyl)-4H-1,2,4-triazol-3-yl)-1-(2-chloro-4-fluorophenyl)-3-azabicyclo[3.1.0]hexane] | 1 | – | – | 0.131 | – | – | – | – | – | – |
| COc1ccc(-n2c(C)nnc2N2C[C@@H]3C[C@]3(c3ccc(F)cc3Cl)C2)cn1 [Example 7, (1S,5R)-1-(2-Chloro-4-fluorophenyl)-3-(4-(6-methoxypyridin-3-yl)-5-methyl-4H-1,2,4-triazol-3-yl)-3-azabicyclo[3.1.0]hexane] | 2 | 12.4 | 90 | – | – | – | – | – | – | – |
| COCc1nnc(N2CC3CC3(c3ccc(F)cc3Cl)C2)n1-c1ccc(OC)nc1 (stereo not drawn) [Example 8, 1-(2-Chloro-4-fluorophenyl)-3-(5-(methoxymethyl)-4-(6-methoxypyridin-3-yl)-4H-1,2,4-triazol-3-yl)-3-azabicyclo[3.1.0]hexane] | 3 | 43.3 | – | 0.023 | 1980 ± 1020 | 23.3 ± 18 | 635 ± 273 | 2.18 ± 0.24 | 1.94 ± 0.983 | 1.08 ± 0.21 |
| COCc1nnc(N2C[C@H]3C[C@@]3(c3ccc(F)cc3Cl)C2)n1-c1ccc(OC)nc1 [Example 10, (1R,5S)-1-(2-Chloro-4-fluorophenyl)-3-(5-(methoxymethyl)-4-(6-methoxypyridin-3-yl)-4H-1,2,4-triazol-3-yl)-3-azabicyclo[3.1.0]hexane] | – | – | – | 0.624 | – | – | – | – | – | – |
| COc1ccc(-n2c(COC(F)F)nnc2N2C[C@@H]3C[C@]3(c3ccc(F)cc3Cl)C2)cn1 [Example 11, (1S,5R)-1-(2-Chloro-4-fluorophenyl)-3-(5-((difluoromethoxy)methyl)-4-(6-methoxypyridin-3-yl)-4H-1,2,4-triazol-3-yl)-3-azabicyclo[3.1.0]hexane] | – | 7.8 | 6.8 | 0.001 | 3980 ± 2970 | 12.6 ± 8.03 | 405 ± 110 | 5.82 ± 2.73 | 2.46 ± 0.706 | 2.86 ± 1.27 |
| COc1ccc(-n2c(C(F)F)nnc2N2C[C@@H]3C[C@]3(c3ccc(F)cc3Cl)C2)cn1 [Example 13, (1S,5R)-1-(2-Chloro-4-fluorophenyl)-3-(5-(difluoromethyl)-4-(6-methoxypyridin-3-yl)-4H-1,2,4-triazol-3-yl)-3-azabicyclo[3.1.0]hexane] | 1.9 | – | – | 0.052 | – | – | – | – | – | – |
| [2H]C([2H])([2H])OCc1nnc(N2C[C@@H]3C[C@]3(c3ccc(F)cc3Cl)C2)n1-c1ccc(OC)nc1 [Example 14, (1S,5R)-1-(2-Chloro-4-fluorophenyl)-3-(5-((methoxy-d3)methyl)-4-(6-methoxypyridin-3-yl)-4H-1,2,4-triazol-3-yl)-3-azabicyclo[3.1.0]hexane] | – | 20.5 | 10.4 | 0.068 | – | – | – | – | – | – |
